Legend:
[1] = Compound concentration in organs and plasma by LC-MS/MS; type: in vivo, mouse; details: 10 mg/kg i.p.
Description: Mice were treated with 10 mg/kg i.p. of the respective inhibitor. Post-euthanasia harvested tissue was frozen in liquid nitrogen and stored at −80 °C for further analysis.
Frozen tissue samples were partially thawed and cut into 1 mm slices, 5–15 mg tissue, 2-fold excess water (mass/vol.), 6-fold excess acetonitrile (16-… compounds) or methanol (GSK205) containing appropriate amount of internal standard, and 2.5 mm zirconia/silica bead (Biospec Products Inc.) were added to 500- μL polypropylene (PP) conical tube, homogenized in a Fast-Prep apparatus (Thermo-Savant) at speed “4” for 20 sec at room temp, and centrifuged at 13,600 g for 5 min at room temp. Depending on the expected concentration range of the measured compound, the supernatant was diluted 1/4–1/20 (in Mobile phase A, see below) and placed in autosampler for LC-MS/MS analysis.
The LC-MS/MS assay for 16-… compounds and GSK205 was developed on an Agilent 1200 series LC system interfaced with Applied Biosystems API 5500QTrap, a hybrid triple quadruple-linear trap MS/MS spectrometer. Analyst (version 1.6.1) software was used for mass parameters tuning, data acquisition, and quantification. LC column: 3 × 4 mm RP C18 (Phenomenex, AJ0-4287) was operated at 35 °C. Mobile phase A: 0.1% formic acid, 2% acetonitrile, in LC/MS-grade water; mobile phase B: acetonitrile; flow rate: 1 mL/min, 1:1 MS/MS:waste split. Run time was 4 min. Diverter valve was used to send flow to MS/MS only between 1.2 and 2.5 min. The elution gradient was: 0–0.5 min, 1%B; 0.5–1.2 min, 1–95%B; 1.2–1.5 min, 95%B; 1.5–1.6 min, 95–1%B. Autosampler was operated at 4 °C; injection volume was kept at 10–50 μL. Electrospray ionization (ESI) source parameters were: positive ionization mode, curtain gas flow = 30, ionization potential = 5500 V, temperature = 500 °C, nebulizing gas 1 flow = 30, nebulizing gas 2 = 30, declustering potential = 20 V. 16-… compounds and GSK205 were individually infused as 100 nM solutions in 50%A/50%B at 10 μL/min flow rate and parameters optimized to provide maximal ion count for “parent” and collision-produced (“daughter”) MS/MS ions. Parent/daughter quantifier [qualifier] ions utilized: GSK205 (401.1/280[370]), 16-8 (400.1/279.1[91.1], 16-16 (387.1/280[105]), 16-18 (415.2/280[370], 16-19 (414.1/279.2[91.1]. Standard (analyte of interest)/internal standard pairs utilized: GSK205/16-16, 16-8/16-16, 16-18/GSK205, 16-19/16-8.
Calibration samples (n = 6) were prepared by adding pure standard of the measured compound to tissue homogenate (tissue + 2-fold excess water, mass/vol) in the appropriate range needed for the particular dosing regime. Organs studied were analyzed alongside the study samples. […] Peak integration, calibration, and quantification was performed within Analyst software. […]

[2] = Preliminary in-vivo cardiac, renal and hepatic toxicity; parameters: species or system mouse; details: 10 mg/kg i.p., vs vehicle; for heart rate (EKG): over 1 h at the 6 h time-point
Description: Mice were treated i.p. with compounds 16-8 and 16-19 (10 mg/kg). Hepatic and renal integrity were analyzed by alanine amino-transferase- and creatinine assays (Sigma), both relying on measurement of absorbance at λ = 570 nm in 96-well micro-titerplates. 8 technical replicates per animal were performed.
For heart rate assessment in mice treated with 16-8 and 16-19, animals were fitted with two electrodes, one to the ear, via clip, one to the rib-cage, using firm adhesive. Heart rate was monitored and analyzed using axoscope and clampfit 9.2 software (Molecular Devices)

[3] = system: formalin-evoked trigeminal irritant pain (TRPA1 contribution); test: Trigeminal formalin irritant pain model, Trpv4-/- mice; type: in vivo, mouse; details: 10 mg/kg i.p.; for late-phase pain behavior: vs vehicle
Description: Figure 7 16-8 and 16-19 effectively attenuate formalin-evoked trigeminal irritant pain. (A) Time-course of nocifensive behavior in WT mice following whisker-pad injection of 4% formalin. The mice were pre-injected (i.p., 10 mg/kg; 15 min before formalin) with GSK205, 16-8 or 16-19. Note effective reduction of nocifensive behavior in the late “neural” phase by compounds 16-8, 16-19, not by GSK205. (B) Cumulative response binned into 3 phases: acute phase (0–5 min), interphase (5–15 min), and late “neural” phase (15–45 min). […] (C) As in (A), but also including Trpv4^−/− mice. Compounds were applied i.p. 15 min before formalin challenge, at 10 mg/kg except established TRPA1 blocker, A967079 (25 mg/kg). Previously-established attenuated nocifensive behavior in early and late phase in Trpv4^−/− mice was recapped, which was reduced further by TRPA1 blocker, A967079. (D) As in (B), plus inclusion of Trpv4^−/− mice. Robust effects of TRPA1-blocker, A967079, were mimicked equi-potently by 16-8 and 16-19 for early phase, and by 16-8 for late phase, partially by 16-19 for late phase. (A,C) show averaged behavioral metrics per time-point, bars in (B,D) represent mean ± SEM; for (D) ^*P < 0.05; ^#P < 0.005, one-way ANOVA; for all panels n = 5–8 mice/group. […] We observed significant residual irritant-pain behavior in all phases of the formalin model in Trpv4^−/− mice, consistent with our previous report[13] (Fig. 7C,D). […] A reference TRPA1-inhibitory compound, A967079, was used at 25 mg/kg body weight as a positive control to inhibit TRPA1, based on a previous report. Reduction of pain behavior in Trpv4^−/− mice was striking, more than 50% in the late neural phase. […] We conclude that compound 16-8 also functions as a potent TRPA1-inhibitor in an in-vivo irritant pain model specifically designed to assess the contribution of TRPA1 to trigeminal irritant pain, and at least as potent as an established reference TRPA1-antagonistic compound. Implementation of this model was conducted as described previously. Video-taped nocifensive behavior was assessed by investigators blinded to genotype and treatment.

| SMILES | concentration in non-nervous tissue, especially liver and kidney, comparison of compounds ([1]; 1 h) | concentration at 6 h time-point compared to 1 h time-point ([1]; several organs) | concentration at 24 h time-point ([1]; several organs) | heart rate (EKG) [2] | serum alanine-amino-transferase (ALT) [2] | serum creatinin [2] | immediate-phase pain behavior [3] | late-phase pain behavior [3] | concentration in fat and pancreas ([1]; after one hour) |
| --- | --- | --- | --- | --- | --- | --- | --- | --- | --- |
| CCN(CCc1ccc(Nc2nc(-c3ccccc3)cs2)cc1)Cc1ccccc1 [16-19] | higher concentrations | 10-20 fold | lower than at the 6 h but higher than at the 1 h time-point | no and did not detect differences and changes | not significantly elevated | not significantly elevated | virtually eliminated | still significantly reduced | – |
| CN(CCc1ccc(Nc2nc(-c3ccccc3)cs2)cc1)Cc1ccccc1 [16-8] | – | – | – | no and did not detect differences and changes | not significantly elevated | not significantly elevated | virtually eliminated | strikingly reduced | above its IC50 |

From article PMC4887995, “Small molecule dual-inhibitors of TRPV4 and TRPA1 for attenuation of inflammation and pain” (Scientific Reports, 2016)
